According to the supplement of paper PMC4862054:

What was measured:
Conditions in all cases: incubation time: 72 h
[1] = tested on: CAL-148; experiment: normalised response (% of control), CellTiter-Glo; higher = more viable cells (100 = DMSO, 0 = benzethonium chloride kill control)
Experimental: (§1)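 DSRT, 72 h incubation, CellTox Green / CellTiter-Glo readout. Signal is normalised to DMSO and benzethonium chloride controls. Value is the normalised response at dose 3.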

[2] = tested on: Hs578T; experiment: as above
Experimental: as §1

[3] = tested on: HCC1599; experiment: as above
Experimental: as §1

[4] = tested on: DU-4475; experiment: as above
Experimental: as §1

[5] = tested on: MDA-MB-231; experiment: as above
Experimental: as §1

[6] = tested on: HDQ-P1; experiment: as above
Experimental: as §1

[7] = tested on: CAL-85-1; experiment: as above
Experimental: as §1

[8] = tested on: MDA-MB-436; experiment: as above
Experimental: as §1

[9] = tested on: SK-BR-3; experiment: as above
Experimental: as §1

[10] = tested on: MDA-MB-468; experiment: as above
Experimental: as §1

[11] = tested on: HCC1937; experiment: as above
Experimental: as §1

[12] = tested on: BT-549; experiment: as above
Experimental: as §1

[13] = tested on: MFM-223; experiment: as above
Experimental: as §1

[14] = tested on: HCC1143; experiment: as above
Experimental: as §1

[15] = tested on: MDA-MB-453; experiment: as above
Experimental: as §1

[16] = tested on: MCF-10A; experiment: as above
Experimental: as §1

[17] = tested on: BT-474; experiment: as above
Experimental: as §1

[18] = tested on: CAL-120; experiment: as above
Experimental: as §1

[19] = tested on: CAL-51; experiment: as above
Experimental: as §1

[20] = tested on: CAL-148; experiment: normalised response (% of control), CellTox Green; higher = less cell death (100 = DMSO, 0 = benzethonium chloride kill control)
Summary of the method: (§2)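 A 20 µl suspension of breast cancer cells was seeded into each well of 384-well plates containing compound at 5 concentrations in 10-fold steps over a compound-specific 10,000-fold range. After 72 h incubation, CellTox Green fluorescence (485/520 nm) was read first, and CellTiter-Glo luminescence was read after 10 min at room temperature. Each plate was normalised against 0.1 % DMSO (100) and a positive kill control (0), and each value is the normalised signal at one concentration.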

[21] = tested on: Hs578T; experiment: as above
Summary of the method: as §2

[22] = tested on: HCC1599; experiment: as above
Summary of the method: as §2

[23] = tested on: DU-4475; experiment: as above
Summary of the method: as §2

[24] = tested on: MDA-MB-231; experiment: as above
Summary of the method: as §2

[25] = tested on: HDQ-P1; experiment: as above
Summary of the method: as §2

[26] = tested on: CAL-85-1; experiment: as above
Summary of the method: as §2

[27] = tested on: MDA-MB-436; experiment: as above
Summary of the method: as §2

[28] = tested on: MDA-MB-468; experiment: as above
Summary of the method: as §2

[29] = tested on: BT-549; experiment: as above
Summary of the method: as §2

[30] = tested on: MFM-223; experiment: as above
Summary of the method: as §2

[31] = tested on: HCC1143; experiment: as above
Summary of the method: as §2

[32] = tested on: MDA-MB-453; experiment: as above
Summary of the method: as §2

[33] = tested on: MCF-10A; experiment: as above
Summary of the method: as §2

[34] = tested on: BT-474; experiment: as above
Summary of the method: as §2

[35] = tested on: CAL-120; experiment: as above
Summary of the method: as §2

[36] = tested on: CAL-51; experiment: as above
Summary of the method: as §2

[37] = tested on: HCC1937; experiment: as above
Summary of the method: as §2

SMILES	normalised response [1] [%]	normalised response [2] [%]	normalised response [3] [%]	normalised response [4] [%]	normalised response [5] [%]	normalised response [6] [%]	normalised response [7] [%]	normalised response [8] [%]	normalised response [9] [%]	normalised response [10] [%]	normalised response [11] [%]	normalised response [12] [%]	normalised response [13] [%]	normalised response [14] [%]	normalised response [15] [%]	normalised response [16] [%]	normalised response [17] [%]	normalised response [18] [%]	normalised response [19] [%]	normalised response [20] [%]	normalised response [21] [%]	normalised response [22] [%]	normalised response [23] [%]	normalised response [24] [%]	normalised response [25] [%]	normalised response [26] [%]	normalised response [27] [%]	normalised response [28] [%]	normalised response [29] [%]	normalised response [30] [%]	normalised response [31] [%]	normalised response [32] [%]	normalised response [33] [%]	normalised response [34] [%]	normalised response [35] [%]	normalised response [36] [%]	normalised response [37] [%]
CC(C)(C)c1cc(NC(=O)Nc2ccc(-c3cn4c(n3)sc3cc(OCCN5CCOCC5)ccc34)cc2)no1 [Quizartinib] (10 nM)	103	102	89	97.9	108	101	103	109	104	103	98	108	105	104	101	105	109	108	71.4	108	107	117	99.3	99.1	92.7	107	95.2	137	104	102	125	93.9	106	97.6	94.6	89.8	–
CCS(=O)(=O)c1cccc(-c2cc(C(=O)NC3CCN(C)CC3)c(C)c3[nH]c4ncc(C)cc4c23)c1 [TAK-901] (10 nM)	104	108	120	107	101	97	100	110	108	94.7	93.4	101	109	98.7	103	104	102	99.6	92.4	105	–	104	101	100	108	95.7	96	77.1	72.2	101	69	101	78.2	100	103	98.6	120
Cc1cc(C(C)Nc2ccccc2)c2nc(N3CCOCC3)cc(=O)n2c1 (configuration not stated) [TGX-221] (100 nM)	100	93.9	113	95.8	92.7	98.7	99.7	94	99.7	86.4	88.1	86.5	94	96.4	93.2	93.5	90.1	97.2	65.8	81	98.5	95.3	99.1	–	–	114	97	52.6	92.5	99.2	74.4	96	108	89.3	105	90.6	80.5
